Earlier results, collected in patent publication US20220008485A1, “Wound Honey” (priority 2020, published 2022).
Read-outs that look alike come from different tables or passages of the source.

Key:
spores of B. cereus = settings: 0.1% TC, HP at 600 MPA, 7° Celsius, infant formula
Pseudomonas aeruginosa = settings: for MBC acid: acid alone; for MBC combination Acid/H2O2: acid part: acid combined with H2O2, in Bovine albumin + yeast extract 1%; for MBC combination Acid/H2O2: H2O2 part: in Bovine albumin + yeast extract 1%
[1] = in combination with silver nanoparticles
[2] = acid combined with H2O2, in Bovine albumin + yeast extract 1%
[3] = H2O2 combined with Formic acid, in Bovine albumin + yeast extract 1%

O=C/C=C/c1ccccc1 [TC, trans-cinnamaldehyde]
Mean logarithmic decrease in spores of B. cereus (spores of B. cereus; Week 1): 1.5
Mean logarithmic decrease in spores of B. cereus (spores of B. cereus; Week 2): 2
Mean logarithmic decrease in spores of B. cereus (spores of B. cereus; Week 3): 3
Mean logarithmic decrease in spores of B. cereus (spores of B. cereus; Week 4): 2.25
Mean logarithmic decrease in spores of B. cereus (spores of B. cereus; Week 5): 3
Mean logarithmic decrease in spores of B. cereus (spores of B. cereus; Week 6): 1.5

O=CC=Cc1ccccc1 [Cinnamaldehyde, cinnamaldehyde]
Minimal Inhibitory Concentration, Cinnamaldehyde (Bacillus cereus; alone): 0.328 mg/mL
Minimal Inhibitory Concentration, Synergy Cinnamaldehyde (Bacillus cereus; [1]): 0.082 mg/mL
Minimal Inhibitory Concentration, Cinnamaldehyde (Clostridium perfringens; alone): 0.065 mg/mL
Minimal Inhibitory Concentration, Synergy Cinnamaldehyde (Clostridium perfringens; [1]): 0.016 mg/mL

CCC(=O)O [Propionic, propionic acid]
MBC acid (Pseudomonas aeruginosa): 0.5%
MBC combination Acid/H2O2: acid part (Pseudomonas aeruginosa): 0.50%

O=C(O)CCC(=O)O [Succinic, succinic acid]
MBC acid (Pseudomonas aeruginosa): 0.078%
MBC combination Acid/H2O2: acid part (Pseudomonas aeruginosa): 0.078%

CC(=O)O [Acetic, acetic acid]
MBC acid (Pseudomonas aeruginosa): 0.625%
MBC combination Acid/H2O2: acid part (Pseudomonas aeruginosa): 0.625%

O=CO [Formic, formic acid]
MBC acid (Listeria monocytogenes; acid alone): 1.56%
MBC combination Acid/H2O2: acid part (Listeria monocytogenes; [2]): 0.625%
MBC acid (Staphylococcus aureus; acid alone): 1.25%
MBC combination Acid/H2O2: acid part (Staphylococcus aureus; [2]): 0.312%
MBC acid (Pseudomonas aeruginosa): 0.025%
MBC combination Acid/H2O2: acid part (Pseudomonas aeruginosa): 0.025%
MBC acid (Enterococcus hirae; acid alone): 5%
MBC combination Acid/H2O2: acid part (Enterococcus hirae; [2]): 0.625%

OO [hydrogen peroxide]
MBC combination Acid/H2O2: H2O2 part (Listeria monocytogenes; H2O2 combined with Formic (printed Fonnic) acid, in Bovine albumin + yeast extract 1%): 0.78%
MBC hydrogen peroxide (Listeria monocytogenes; hydrogen peroxide alone): 6.25%
MBC combination Acid/H2O2: H2O2 part (Staphylococcus aureus; [3]): 1.56%
MBC hydrogen peroxide (Staphylococcus aureus; hydrogen peroxide alone): 3.12%
MBC combination Acid/H2O2: H2O2 part (Pseudomonas aeruginosa; H2O2 combined with Acetic acid): 0.39%
MBC combination Acid/H2O2: H2O2 part (Pseudomonas aeruginosa; H2O2 combined with Formic acid): 0.39%
MBC combination Acid/H2O2: H2O2 part (Pseudomonas aeruginosa; H2O2 combined with Propionic acid): 0.19%
MBC combination Acid/H2O2: H2O2 part (Pseudomonas aeruginosa; H2O2 combined with Succinic acid): 0.78%
MBC hydrogen peroxide (Pseudomonas aeruginosa; hydrogen peroxide alone): 1.56%
MBC combination Acid/H2O2: H2O2 part (Enterococcus hirae; [3]): 3.12%
MBC hydrogen peroxide (Enterococcus hirae; hydrogen peroxide alone): 12.5%
